We go through seven compounds from patent US12037325B2, “1,2-diaminobenzimidazole derivative” (Carna Biosciences, Inc., priority 2021, dated 2024).

Structures can show the parent of a compound that is named as a salt.

One assay concerns the target T1, hSTING (Homo sapiens, UniProt Q86WV6).
T1 construct: host or cells: HEK-Blue ISG cells (HEK293-derived SEAP reporter line)
The assay can be described thus: Inhibition test of intracellular human STING (hSTING) pathways using reporter cells (HEK-Blue ISG, SEAP reporter). It counts as cell-based. To be noted: stimulation with Compound 3 (10 nM), 21 hours, read-out: Inhibitory Activity on hSTING. The procedure: Since STING activates the transcription factor IRF3 by ligand stimulation, the activity of STING can be evaluated by a reporter assay using a secreted alkaline phosphatase (SEAP reporter) incorporated downstream of the IRF-inducible promoter. In other words, the hSTING inhibitory activity of the test compounds was evaluated using HEK-Blue™ ISG cells (manufactured by InvivoGen, #hkb-isg-1) into which the SEAP reporter was incorporated. The activation of hSTING was performed by stimulation with the small molecule ligand, Compound 3 as described in the literature (Ramanjulu, J. M., et al., Nature. 2018, 564 (7736), 439-443).
The HEK-Blue™ ISG cells were seeded in 96-well plates and cultured overnight at 37° C. in a 5% CO2 incubator. To each well of the cell culture plates, a test compound solution adjusted to have a final concentration of 0.1 to 10 μM was added and cultured in the CO2 incubator for 1 hour. Then, the Compound 3 (final concentration of 10 nM) was added thereto and further cultured in the CO2 incubator for 21 hours. After collecting the culture supernatant from each well, the reporter activity was measured by luminous reaction of alkaline phosphatase.
Method for Evaluating Inhibitory Activity. Taking the reporter activity in the group without test compounds added and with Compound 3 added as 100% and the reporter activity in the group without test compounds added and without Compound 3 added as 0%, IC50 values were determined by regression analysis of the inhibition rate calculated from the reporter activity at each compound concentration and the test compound concentration (logarithm).
Evaluation Result. […] The inhibitory effect on the hSTING was indicated by marking an IC50 value of less than 0.1 μM with ***, that of 0.1 μM or more and less than 1 μM with **, that of 1 μM or more and less than 10 μM with *, and that of 10 μM or more with “-”.

Another assay has as its target T2, STING (Homo sapiens, UniProt Q86WV6, G230A/H232R/R293Q/R71H).
T2 construct: host or cells: THP-1 cells, PMA-treated
The assay can be described thus: Inhibition test of human IFN-β production by cGAMP stimulation in THP-1 cells. To be noted: PMA-treated THP-1 cells, 2'3'-cGAMP transfection, 18 hours, ELISA of culture supernatant; read-out: Inhibitory effect on the IFN-β production. It counts as cell-based. The procedure:
The human monocytic cell line THP-1 cells were used to measure the amount of IFN-β produced when stimulated with the endogenous ligand cGAMP, thereby evaluating the inhibitory activity of the test compounds on STING activation.
After THP-1 cells (manufactured by ATCC) were seeded in 96-well plates, PMA (manufactured by Santa Cruz Biotechnology, Inc.) adjusted to a concentration after addition of 100 nM was added and cultured overnight at a 37° C. in a 5% CO2 incubator (10% FBS, 50 U/mL penicillin/50 μg/mL streptomycin-containing RPMI 1640 medium). To each well of the plate, a test compound solution adjusted to a final concentration of 0.001-1 μM of the test compound was added and cultured in the CO2 incubator for 1 hour (DMSO final concentration of 0.1%). 0.12 μg/well of 2′3′-cGAMP (manufactured by ChemieTek, #CT-CGAMP) was introduced into the cells by transfection method using Lipofectamine 2000 (manufactured by Invitrogen) and cultured in the CO2 incubator for another 18 hours. After collecting the culture supernatant from each well, the amount of human IFN-P production in the culture supernatant was measured by ELISA method using R&D human IFN-β Duoset (manufactured by R&D systems).
Method for Evaluating Inhibitory Activity. Taking the amount of human IFN-β production in the group without test compounds added and with cGAMP added as 100% and the amount of human IFN-β production in the group without test compounds added and without cGAMP added as 0%, IC50 values were determined by regression analysis of the inhibition rate calculated from the amount of human IFN-β production at each compound concentration and the test compound concentration (logarithm).
Evaluation Result. […] The inhibitory effect on the IFN-β production was indicated by marking an IC50 value of less than 0.01 μM with ***, that of 0.01 μM or more and less than 0.1 μM with **, that of 0.1 μM or more and less than 1 μM with *, and that of 1 μM or more with “-”, and NT was marked as unmeasured.

T1 sequence (Q86WV6 whole entry H232R): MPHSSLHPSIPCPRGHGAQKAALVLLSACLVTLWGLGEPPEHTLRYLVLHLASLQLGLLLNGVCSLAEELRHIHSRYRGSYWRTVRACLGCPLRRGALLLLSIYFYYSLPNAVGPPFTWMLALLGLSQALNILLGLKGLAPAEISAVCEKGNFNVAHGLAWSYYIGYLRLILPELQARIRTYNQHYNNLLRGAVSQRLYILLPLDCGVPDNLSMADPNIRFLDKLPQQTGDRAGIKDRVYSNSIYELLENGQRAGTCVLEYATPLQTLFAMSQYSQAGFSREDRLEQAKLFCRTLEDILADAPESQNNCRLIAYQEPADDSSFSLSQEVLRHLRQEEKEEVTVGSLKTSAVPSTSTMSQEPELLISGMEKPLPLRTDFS
T2 sequence (Q86WV6 whole entry R71H/G230A/H232R/R293Q): as the sequence (Q86WV6 whole entry H232R) above, with R71H, G230A, R293Q counted along it

Regarding `Cl.[2H]C([2H])([2H])Nn1c(Nc2c[nH]c3ccc(Cl)cc23)nc2cc(C(F)(F)F)ccc21` [Example 25, N2-(5-chloro-1H-indol-3-yl)-N1-(methyl-d3)-5-(trifluoromethyl)-1H-benzo[d]imidazole-1,2-diamine hydrochloride], the IC50 on hSTING is under 100 nM; on STING, under 10 nM.
Regarding `CNn1c(Nc2c[nH]c3ccc(F)c(F)c23)nc2cc(C(F)(F)F)c(F)cc21` [Example 12, N2-(4,5-difluoro-1H-indol-3-yl)-6-fluoro-N1-methyl-5-(trifluoromethyl)-1H-benzo[d]imidazole-1,2-diamine hydrochloride], the results for the IC50 at hSTING and on STING were 1000 to 10000 nM and over 1000 nM, respectively.
The like results for `Nn1c(Nc2c[nH]c3c(F)cc(F)cc23)nc2cc(C(F)(F)F)ccc21` [Example 21, N2-(5,7-difluoro-1H-indol-3-yl)-5-(trifluoromethyl)-1H-benzo[d]imidazole-1,2-diamine hydrochloride] were, in that order, under 100 nM and 100 to 1000 nM.
Consider `Nn1c(Nc2c[nH]c3ccc(F)cc23)nc2cc(C(F)(F)F)ccc21` [Example 28, N2-(5-fluoro-1H-indol-3-yl)-5-(trifluoromethyl)-1H-benzo[d]imidazole-1,2-diamine], for which the values for the IC50 at hSTING and on STING were 100 to 1000 nM and 10 to 100 nM, respectively.
Turning to `Nn1c(Nc2c[nH]c3cc(F)c(F)cc23)nc2cc(C(F)(F)F)ccc21` [Example 2, N2-(5,6-difluoro-1H-indol-3-yl)-5-(trifluoromethyl)-1H-benzo[d]imidazol-1,2-diamine Formate], the IC50 is under 100 nM at hSTING and under 10 nM on STING.
For `CCNn1c(Nc2c[nH]c3cc(F)c(F)cc23)nc2cc(C(F)(F)F)cc(F)c21` [Example 23, N2-(5,6-difluoro-1H-indol-3-yl)-N1-ethyl-7-fluoro-5-(trifluoromethyl)-1H-benzo[d]imidazole-1,2-diamine hydrochloride], the IC50 on hSTING was under 100 nM; at STING it was 10 to 100 nM.
Consider `Nn1c(Nc2c[nH]c3ccc(F)c(F)c23)nc2cc(C(F)(F)F)ccc21` [Example 11, N2-(4,5-difluoro-1H-indol-3-yl)-5-(trifluoromethyl)-1H-benzo[d]imidazole-1,2-diamine hydrochloride], for which the values for the IC50 on hSTING and on STING were 100 to 1000 nM and 10 to 100 nM, respectively.
